{"source": "patent US20250276994A1", "about": "“CAP ANALOG FOR THE 5'-END OF EUKARYOTIC MESSENGER RNAS” (WESTFÄLISCHE WILHELMS-UNIVERSITÄT, priority 2021, published 2025)", "test": "Irradiation of photocleavable 5′-cap analogs, LC-MS (triple quad)", "type": "physicochemical", "details": "30 seconds, 365 nm (3 W)", "description": "For determination of mass spectra, HPLC—triple-quadrupole mass spectrometry system was used. The system consists of Agilent 1260 Infinity II with dual λ absorbance detector (G7114A) HPLC part and Agilent Ultivo mass spectrometer with JetStream ion source (type of ESI). Column which was used: Agilent Poroshell 120 EC-C18 (3.0×150/2.7 μm). The polar compounds were tested by LC method (eluent 20 mM NH40Ac buffer (pH=6)/CH3CN, gradient 0-30%, column temperature=20° C.).\nSamples of the photocleavable 5′-cap analog of formula (22) were irradiated for 30 seconds with 365 nm (3 W)."}
{"molecule": "COc1cc(COC(=O)Nc2nc3c(c(=O)[nH]2)[n+](C)cn3[C@@H]2O[C@H](COP(=O)(O)CP(=O)(O)OP(=O)(O)OC[C@H]3O[C@@H](n4cnc5c(=O)[nH]c(N)nc54)C(O)C3O)C(O)C2O)c([N+](=O)[O-])cc1OC", "note": "(stereo partly shown) [compound 12, P1-(N^2-(4,5-Dimethoxy-2-nitrobenzyl)oxycarbonyl-7-methylguanosin-5′-yl)-P3-guanosin-5′-yl 1,2-methylenetriphosphate]", "values": [{"measurement": "uncaging of the cap after irradiation (LC-MS)", "value": "partially uncaged"}]}
